Measured values reported in ChEMBL document CHEMBL5316334, “Structure-Based Design of Novel Alkynyl Thio-Benzoxazepinone Receptor-Interacting Protein Kinase-1 Inhibitors: Extending the Chemical Space from the Allosteric to ATP Binding Pockets” (J Med Chem, 2023).
Calls of active or inactive are those of the source. No cut-off for these calls is given here.

Assays:
[1] = test system: HT-29; test: Cytotoxicity against human HT-29 cells assessed as reduction in cell viability at 100 uM measured for 16 to 24 hrs by Cell-titer-glo assay; assay type: functional, cell-based; details: time 16-24 hrs
[2] = test system: HT-29; test: Cytotoxicity against human HT-29 cells assessed as reduction in cell viability measured for 16 to 24 hrs by Cell-titer-glo assay; assay type: functional; details: time 16-24 hrs
[3] = test system: HT-29; test: Anti-necroptosis activity against human HT-29 cells assessed as inhibition of TSZ-induced necroptosis preincubated for 30 mins followed by compound addition and measured for 16 hrs by Cell-titer-glo assay; assay type: functional, cell-based
[4] = target: T1, Receptor-interacting serine/threonine-protein kinase 1 (Homo sapiens, UniProt Q13546); test: Binding affinity to recombinant RIPK1 (unknown origin) assessed as dissociation constant by kinomescan assay
T1 sequence (Q13546 whole entry): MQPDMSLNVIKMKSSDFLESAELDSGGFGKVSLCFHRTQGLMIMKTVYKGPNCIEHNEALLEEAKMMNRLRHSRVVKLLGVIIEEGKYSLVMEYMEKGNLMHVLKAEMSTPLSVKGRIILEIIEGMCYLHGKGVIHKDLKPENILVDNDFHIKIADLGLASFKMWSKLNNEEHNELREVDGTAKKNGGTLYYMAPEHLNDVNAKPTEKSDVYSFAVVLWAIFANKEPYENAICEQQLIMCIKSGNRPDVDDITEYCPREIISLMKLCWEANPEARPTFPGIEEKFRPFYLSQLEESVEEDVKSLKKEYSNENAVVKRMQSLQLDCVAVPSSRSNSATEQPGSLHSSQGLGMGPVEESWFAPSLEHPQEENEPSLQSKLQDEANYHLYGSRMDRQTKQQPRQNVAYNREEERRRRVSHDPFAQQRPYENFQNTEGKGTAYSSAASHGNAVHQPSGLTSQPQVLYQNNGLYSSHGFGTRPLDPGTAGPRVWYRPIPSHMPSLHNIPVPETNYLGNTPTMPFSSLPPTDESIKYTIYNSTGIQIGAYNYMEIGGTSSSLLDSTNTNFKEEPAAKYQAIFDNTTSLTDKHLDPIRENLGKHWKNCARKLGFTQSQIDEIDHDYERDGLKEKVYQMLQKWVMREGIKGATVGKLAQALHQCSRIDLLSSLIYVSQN

[5] = test system: HT-29; test: Anti-necroptosis activity against human HT-29 cells assessed as inhibition of TSZ-induced necroptosis pretreated with compound followed by TSZ induction and measured for 12 hrs by Cell-titer-glo assay; assay type: functional, cell-based; details: dose 0.63-100 nM
[6] = test system: L929; test: Anti-necroptosis activity against TNFalpha-induced mouse L929 cells assessed as cell viability preincubated for 1 hr followed by TNFalpha stimulation and measured after 18 hrs by Cell-titer-glo assay; assay type: functional, cell-based
[7] = Half life in mouse; assay type: ADME, organism-based; details: in vivo

## CN1C(=S)[C@@H](NC(=O)c2n[nH]c(Cc3ccccc3)n2)COc2ccc(C#Cc3cccc(C(F)(F)F)c3)cc21
[1]
  Activity: inactive
[2]
  CC50: > 100000 nM
[3]
  EC50: 47.8 nM

## CN1C(=S)[C@@H](NC(=O)c2n[nH]c(Cc3ccccc3)n2)COc2ccc(C#CCc3ccccc3)cc21
[1]
  Activity: inactive
[2]
  CC50: > 100000 nM
[3]
  EC50: 14.3 nM

## CN1C(=S)[C@@H](NC(=O)c2n[nH]c(Cc3ccccc3)n2)COc2ccc(C#Cc3ccccc3OC(F)(F)F)cc21
[1]
  Activity: inactive
[2]
  CC50: > 100000 nM
[3]
  EC50: 36.2 nM

## CN1C(=S)[C@@H](NC(=O)c2n[nH]c(Cc3ccccc3)n2)COc2ccc(C#Cc3cccc(F)c3)cc21
[1]
  Activity: inactive
[2]
  CC50: > 100000 nM
[3]
  EC50: 22.6 nM

## COc1ccc(C#Cc2ccc3c(c2)N(C)C(=S)[C@@H](NC(=O)c2n[nH]c(Cc4ccccc4)n2)CO3)cc1
[1]
  Activity: inactive
[2]
  CC50: > 100000 nM
[3]
  EC50: 299 nM

## CN1C(=S)[C@@H](NC(=O)c2n[nH]c(Cc3ccccc3)n2)COc2ccc(C#CC3CC3)cc21
[4]
  Kd: 40 nM
[2]
  CC50: > 100000 nM
[3]
  EC50: 8.7 nM

## Cc1ccccc1C#Cc1ccc2c(c1)N(C)C(=S)[C@@H](NC(=O)c1n[nH]c(Cc3ccccc3)n1)CO2
[1]
  Activity: inactive
[2]
  CC50: > 100000 nM
[3]
  EC50: 23.3 nM

## COC(=O)c1ccccc1C#Cc1ccc2c(c1)N(C)C(=S)[C@@H](NC(=O)c1n[nH]c(Cc3ccccc3)n1)CO2
[1]
  Activity: inactive
[2]
  CC50: > 100000 nM
[3]
  EC50: 32.9 nM

## CN1C(=S)[C@@H](NC(=O)c2n[nH]c(Cc3ccccc3)n2)COc2ccc(C#Cc3ccccc3Cl)cc21
[1]
  Activity: inactive
[2]
  CC50: > 100000 nM
[3]
  EC50: 14 nM

## CN1C(=S)[C@@H](NC(=O)c2n[nH]c(Cc3ccccc3)n2)COc2ccc(C#Cc3ccccc3)cc21
[1]
  Activity: inactive
[2]
  CC50: > 100000 nM
[3]
  EC50: 12.7 nM

## CN1C(=S)[C@@H](NC(=O)c2n[nH]c(Cc3ccccc3)n2)COc2ccc(C#Cc3cccc(Cl)c3)cc21
[1]
  Activity: inactive
[2]
  CC50: > 100000 nM
[3]
  EC50: 23.9 nM

## CN1C(=S)[C@@H](NC(=O)c2n[nH]c(Cc3ccccc3)n2)COc2ccc(C#Cc3ccc(C(F)(F)F)cc3)cc21
[1]
  Activity: inactive
[2]
  CC50: > 100000 nM
[3]
  EC50: 25.5 nM

## CN1C(=S)[C@@H](NC(=O)c2n[nH]c(Cc3ccccc3)n2)COc2ccccc21
[2]
  CC50: > 100000 nM

## CN1C(=S)[C@@H](NC(=O)c2n[nH]c(Cc3ccccc3)n2)COc2ccc(C#Cc3ccc(OC(F)(F)F)cc3)cc21
[1]
  Activity: inactive
[2]
  CC50: > 100000 nM
[3]
  EC50: 10.4 nM

## CN1C(=S)[C@@H](NC(=O)c2n[nH]c(Cc3ccccc3)n2)COc2ccc(C#Cc3ccccc3[N+](=O)[O-])cc21
[1]
  Activity: inactive
[2]
  CC50: > 100000 nM
[3]
  EC50: 15.1 nM

## Cc1ccc(C#Cc2ccc3c(c2)N(C)C(=S)[C@@H](NC(=O)c2n[nH]c(Cc4ccccc4)n2)CO3)cc1
[1]
  Activity: inactive
[2]
  CC50: > 100000 nM
[5]
  Activity: Dose-Dependent Effect
[3]
  EC50: 17.4 nM

## CN1C(=O)[C@@H](NC(=O)c2n[nH]c(Cc3ccccc3)n2)COc2ccc(N3CC4(CCOCC4)C3)cc21
[6]
  EC50: < 1 nM

## COc1ccccc1C#Cc1ccc2c(c1)N(C)C(=S)[C@@H](NC(=O)c1n[nH]c(Cc3ccccc3)n1)CO2
[1]
  Activity: inactive
[2]
  CC50: > 100000 nM
[3]
  EC50: 10.7 nM

## COc1cccc(C#Cc2ccc3c(c2)N(C)C(=S)[C@@H](NC(=O)c2n[nH]c(Cc4ccccc4)n2)CO3)c1
[1]
  Activity: inactive
[2]
  CC50: > 100000 nM
[3]
  EC50: 11.1 nM

## CN1C(=S)[C@@H](NC(=O)c2n[nH]c(Cc3ccccc3)n2)COc2ccc(C#Cc3ccc(F)cc3)cc21
[1]
  Activity: inactive
[2]
  CC50: > 100000 nM
[3]
  EC50: 22.5 nM

## COC(=O)c1cccc(C#Cc2ccc3c(c2)N(C)C(=S)[C@@H](NC(=O)c2n[nH]c(Cc4ccccc4)n2)CO3)c1
[4]
  Kd: 160 nM
[1]
  Activity: inactive
[2]
  CC50: > 100000 nM
[3]
  EC50: 10.8 nM

## CN1C(=S)[C@@H](NC(=O)c2n[nH]c(Cc3ccccc3)n2)COc2ccc(C#Cc3ccccc3C(F)(F)F)cc21
[1]
  Activity: inactive
[2]
  CC50: > 100000 nM
[3]
  EC50: 41.3 nM

## CN1C(=S)[C@@H](NC(=O)c2n[nH]c(Cc3ccccc3)n2)COc2ccc(C#Cc3ccc(Cl)cc3)cc21
[1]
  Activity: inactive
[2]
  CC50: > 100000 nM
[3]
  EC50: 31.3 nM

## CN1C(=S)[C@@H](NC(=O)c2n[nH]c(Cc3ccccc3)n2)COc2ccc(C#Cc3ccc(C#N)cc3)cc21
[4]
  Kd: 92 nM
[1]
  Activity: inactive
[2]
  CC50: > 100000 nM
[3]
  EC50: 6.3 nM

## COC(=O)c1ccc(C#Cc2ccc3c(c2)N(C)C(=S)[C@@H](NC(=O)c2n[nH]c(Cc4ccccc4)n2)CO3)cc1
[4]
  Kd: 83 nM
[1]
  Activity: inactive
[2]
  CC50: > 100000 nM
[3]
  EC50: 5.8 nM

## CN1C(=S)[C@@H](NC(=O)c2n[nH]c(Cc3ccccc3)n2)COc2ccc(C#Cc3ccccc3C#N)cc21
[4]
  Kd: 78 nM
[1]
  Activity: inactive
[2]
  CC50: > 100000 nM
[3]
  EC50: 7.7 nM

## CN1C(=S)[C@@H](NC(=O)c2n[nH]c(Cc3ccccc3)n2)COc2ccc(C#Cc3ccccc3F)cc21
[1]
  Activity: inactive
[2]
  CC50: > 100000 nM
[3]
  EC50: 32.3 nM

## Cc1cccc(C#Cc2ccc3c(c2)N(C)C(=S)[C@@H](NC(=O)c2n[nH]c(Cc4ccccc4)n2)CO3)c1
[1]
  Activity: inactive
[2]
  CC50: > 100000 nM
[3]
  EC50: 27.6 nM

## CN1C(=S)[C@@H](NC(=O)c2n[nH]c(Cc3ccccc3)n2)COc2ccc(C#C[Si](C)(C)C)cc21
[1]
  Activity: inactive
[2]
  CC50: > 100000 nM
[3]
  EC50: 20.5 nM

## CN1C(=S)[C@@H](NC(=O)c2n[nH]c(Cc3ccccc3)n2)COc2ccc(C#Cc3ccc([N+](=O)[O-])cc3)cc21
[4]
  Kd: 150 nM
[1]
  Activity: inactive
[2]
  CC50: > 100000 nM
[3]
  EC50: 6.8 nM

## CN1C(=O)C(Cc2c[nH]c3ccccc23)NC1=S (stereo unspecified) [NECROSTATIN]
[7]
  half-life: < 5 min

## CN1C(=S)[C@@H](NC(=O)c2n[nH]c(Cc3ccccc3)n2)COc2ccc(C#Cc3cccc([N+](=O)[O-])c3)cc21
[4]
  Kd: 230 nM
[1]
  Activity: inactive
[2]
  CC50: > 100000 nM
[3]
  EC50: 9.2 nM

## CN1C(=S)[C@@H](NC(=O)c2n[nH]c(Cc3ccccc3)n2)COc2ccc(C#Cc3cccc(OC(F)(F)F)c3)cc21
[1]
  Activity: inactive
[2]
  CC50: > 100000 nM
[3]
  EC50: 27 nM

## CN1C(=O)[C@@H](NC(=O)c2nnc(Cc3ccccc3)[nH]2)COc2ccc(C#CC(C)(C)O)cc21 [OCADUSERTIB]
[6]
  EC50: < 1 nM
